Data from US20260216144A1, “TARGETING MB2 OF THE MYC ONCOGENE AND ITS INTERACTION WITH TRRAP IN CANCER” (priority 2019, published 2026).

Tests used:
MYC:TRRAP interaction = MYC:TRRAP interaction (Homo sapiens, UniProt P01106+Q9Y4A5); test: MYC:TRRAP in-cell luminescence complementation assay (NanoBiT; SmB-MYC 1-190 and TRRAP 2033-2283-LgB in HeLa cells); format: cell-based
Outline: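 HeLa cells transfected with SmB-MYC 1-190, TRRAP 2033-2283-LgB and EGFP reporter (6.7:60:33.3 ng plasmid per well); two days later treated 2 h with compounds at 25 μM. NanoBiT luminescence normalized to EGFP fluorescence; hits retested at 10 μM and counter-screened on LgB/SmB alone.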

MYC:TRRAP complexes = biological target: T1, MYC:TRRAP complexes (Homo sapiens, UniProt P01106+Q9Y4A5); test: in vitro co-IP (compounds added directly to the purified MYC:TRRAP complex on pre-washed beads); format: binding; details: in vitro by co-IP; normalized to protein levels; FIG. 26B; read-out: IC50 for the inhibition of MYC:TRRAP
T1 construct: immunoprecipitation experiments using endogenous full length MYC and TRRAP
T1 sequence (P01106 16-454): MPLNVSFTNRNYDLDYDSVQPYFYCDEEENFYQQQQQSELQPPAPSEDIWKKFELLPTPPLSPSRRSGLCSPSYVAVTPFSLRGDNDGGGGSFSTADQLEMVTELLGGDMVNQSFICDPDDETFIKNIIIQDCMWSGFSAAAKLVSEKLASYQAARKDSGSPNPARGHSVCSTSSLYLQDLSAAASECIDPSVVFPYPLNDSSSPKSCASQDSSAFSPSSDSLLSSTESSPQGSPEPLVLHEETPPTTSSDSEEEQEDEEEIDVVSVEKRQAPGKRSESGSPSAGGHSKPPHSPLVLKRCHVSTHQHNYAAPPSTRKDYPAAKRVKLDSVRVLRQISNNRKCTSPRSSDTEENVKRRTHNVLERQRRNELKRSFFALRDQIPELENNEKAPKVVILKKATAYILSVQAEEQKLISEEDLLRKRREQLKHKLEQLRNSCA
T1 sequence (Q9Y4A5 1-3830 isoform Q9Y4A5-2): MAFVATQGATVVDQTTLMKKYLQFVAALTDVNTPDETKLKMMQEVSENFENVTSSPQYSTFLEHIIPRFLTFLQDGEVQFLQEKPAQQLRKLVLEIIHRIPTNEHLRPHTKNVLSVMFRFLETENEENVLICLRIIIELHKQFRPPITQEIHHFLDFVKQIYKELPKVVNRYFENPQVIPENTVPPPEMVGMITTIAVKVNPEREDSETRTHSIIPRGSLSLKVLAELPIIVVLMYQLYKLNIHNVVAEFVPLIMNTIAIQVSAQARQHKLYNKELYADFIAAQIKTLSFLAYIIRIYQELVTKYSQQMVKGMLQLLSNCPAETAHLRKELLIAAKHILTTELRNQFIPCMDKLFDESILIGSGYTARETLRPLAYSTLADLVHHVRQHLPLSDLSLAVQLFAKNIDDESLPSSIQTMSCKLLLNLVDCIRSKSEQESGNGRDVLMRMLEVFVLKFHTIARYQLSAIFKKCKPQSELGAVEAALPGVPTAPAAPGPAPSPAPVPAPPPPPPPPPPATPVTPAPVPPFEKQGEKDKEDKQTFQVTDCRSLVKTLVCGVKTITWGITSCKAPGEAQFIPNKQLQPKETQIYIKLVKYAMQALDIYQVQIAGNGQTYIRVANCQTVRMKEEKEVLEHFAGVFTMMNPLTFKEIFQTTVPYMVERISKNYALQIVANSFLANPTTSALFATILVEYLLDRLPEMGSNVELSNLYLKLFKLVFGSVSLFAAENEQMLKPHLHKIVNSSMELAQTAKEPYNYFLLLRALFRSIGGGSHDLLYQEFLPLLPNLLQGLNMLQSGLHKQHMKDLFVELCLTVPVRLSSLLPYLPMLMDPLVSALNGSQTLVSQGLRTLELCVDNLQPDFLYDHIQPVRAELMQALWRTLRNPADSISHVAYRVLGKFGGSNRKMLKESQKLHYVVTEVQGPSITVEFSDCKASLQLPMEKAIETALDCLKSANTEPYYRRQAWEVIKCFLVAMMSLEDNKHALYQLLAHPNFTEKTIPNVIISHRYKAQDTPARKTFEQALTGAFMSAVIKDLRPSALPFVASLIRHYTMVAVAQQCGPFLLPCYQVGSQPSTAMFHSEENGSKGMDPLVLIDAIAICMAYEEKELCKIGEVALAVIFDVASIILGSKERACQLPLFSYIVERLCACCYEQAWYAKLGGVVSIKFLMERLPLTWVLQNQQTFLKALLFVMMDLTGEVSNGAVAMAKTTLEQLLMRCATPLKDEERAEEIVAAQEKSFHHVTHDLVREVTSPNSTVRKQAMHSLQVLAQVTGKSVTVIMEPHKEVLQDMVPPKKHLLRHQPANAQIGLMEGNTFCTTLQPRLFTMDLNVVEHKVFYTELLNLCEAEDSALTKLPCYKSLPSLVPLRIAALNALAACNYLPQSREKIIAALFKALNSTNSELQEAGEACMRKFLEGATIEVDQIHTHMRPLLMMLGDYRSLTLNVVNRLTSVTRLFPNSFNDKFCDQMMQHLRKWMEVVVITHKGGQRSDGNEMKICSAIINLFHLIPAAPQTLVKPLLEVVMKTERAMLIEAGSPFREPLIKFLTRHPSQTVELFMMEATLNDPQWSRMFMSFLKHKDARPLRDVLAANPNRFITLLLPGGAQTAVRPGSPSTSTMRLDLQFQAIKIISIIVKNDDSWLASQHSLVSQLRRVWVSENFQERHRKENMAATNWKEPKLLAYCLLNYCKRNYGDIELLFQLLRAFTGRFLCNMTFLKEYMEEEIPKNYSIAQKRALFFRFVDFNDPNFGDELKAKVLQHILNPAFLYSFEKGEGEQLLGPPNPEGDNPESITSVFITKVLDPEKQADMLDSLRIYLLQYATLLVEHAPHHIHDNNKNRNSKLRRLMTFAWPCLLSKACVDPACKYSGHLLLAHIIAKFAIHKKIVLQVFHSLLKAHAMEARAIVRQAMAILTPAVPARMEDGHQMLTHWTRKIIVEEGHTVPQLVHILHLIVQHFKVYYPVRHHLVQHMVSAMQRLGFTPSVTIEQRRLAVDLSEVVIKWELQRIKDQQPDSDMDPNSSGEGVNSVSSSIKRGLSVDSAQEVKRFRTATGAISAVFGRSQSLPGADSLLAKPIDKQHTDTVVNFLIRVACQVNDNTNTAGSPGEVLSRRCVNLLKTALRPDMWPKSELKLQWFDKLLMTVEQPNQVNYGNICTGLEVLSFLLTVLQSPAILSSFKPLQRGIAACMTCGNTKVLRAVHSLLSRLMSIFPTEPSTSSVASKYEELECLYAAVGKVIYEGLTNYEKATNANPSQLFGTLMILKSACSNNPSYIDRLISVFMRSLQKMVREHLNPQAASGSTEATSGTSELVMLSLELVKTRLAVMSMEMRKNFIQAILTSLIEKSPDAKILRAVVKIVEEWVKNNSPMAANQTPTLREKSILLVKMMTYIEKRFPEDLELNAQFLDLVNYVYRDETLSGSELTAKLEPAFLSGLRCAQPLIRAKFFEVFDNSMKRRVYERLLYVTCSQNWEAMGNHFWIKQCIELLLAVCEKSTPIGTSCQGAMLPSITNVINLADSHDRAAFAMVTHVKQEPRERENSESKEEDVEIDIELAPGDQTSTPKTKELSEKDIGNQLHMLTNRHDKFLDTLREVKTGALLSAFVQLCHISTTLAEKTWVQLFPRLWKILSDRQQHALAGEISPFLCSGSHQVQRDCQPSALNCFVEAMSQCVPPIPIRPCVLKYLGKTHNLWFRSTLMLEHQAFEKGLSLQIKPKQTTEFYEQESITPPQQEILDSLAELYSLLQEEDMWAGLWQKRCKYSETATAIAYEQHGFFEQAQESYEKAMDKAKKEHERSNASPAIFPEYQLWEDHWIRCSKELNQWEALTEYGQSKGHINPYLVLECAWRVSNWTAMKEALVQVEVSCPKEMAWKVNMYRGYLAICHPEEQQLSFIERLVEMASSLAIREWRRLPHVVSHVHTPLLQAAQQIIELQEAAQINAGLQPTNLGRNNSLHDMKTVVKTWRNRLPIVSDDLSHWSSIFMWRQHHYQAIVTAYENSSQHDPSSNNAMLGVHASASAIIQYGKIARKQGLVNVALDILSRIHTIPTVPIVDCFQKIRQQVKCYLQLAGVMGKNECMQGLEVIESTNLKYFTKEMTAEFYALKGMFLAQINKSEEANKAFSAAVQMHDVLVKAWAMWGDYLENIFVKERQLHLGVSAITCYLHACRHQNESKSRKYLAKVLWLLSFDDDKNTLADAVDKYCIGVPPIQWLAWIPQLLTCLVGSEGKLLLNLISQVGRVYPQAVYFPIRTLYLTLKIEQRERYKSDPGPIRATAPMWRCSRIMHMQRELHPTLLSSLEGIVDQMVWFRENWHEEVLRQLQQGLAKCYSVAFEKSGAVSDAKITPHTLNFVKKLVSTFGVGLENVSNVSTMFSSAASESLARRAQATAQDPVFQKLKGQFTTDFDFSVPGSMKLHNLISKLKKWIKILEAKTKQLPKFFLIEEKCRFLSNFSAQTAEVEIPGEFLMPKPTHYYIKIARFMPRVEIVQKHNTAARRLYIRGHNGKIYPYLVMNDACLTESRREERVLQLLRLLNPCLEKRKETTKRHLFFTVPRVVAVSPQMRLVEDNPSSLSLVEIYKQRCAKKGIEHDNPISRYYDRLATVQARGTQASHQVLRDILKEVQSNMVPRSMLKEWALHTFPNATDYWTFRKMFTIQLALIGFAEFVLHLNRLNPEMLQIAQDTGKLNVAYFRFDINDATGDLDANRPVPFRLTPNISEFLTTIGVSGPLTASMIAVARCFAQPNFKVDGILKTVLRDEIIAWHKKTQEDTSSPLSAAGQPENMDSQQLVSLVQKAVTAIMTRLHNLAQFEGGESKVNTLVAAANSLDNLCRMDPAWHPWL
Procedure: FIGS. 23A-23B show the results of co-IP assay experiments comparing the top 17 hits in immunoprecipitation experiments using endogenous full length MYC and TRRAP. In these experiments immunocomplexes were immunoprecipitated with anti-MYC beads in the presence of 25 μM of each of the 17 top compounds. Experiments were carried out in cells (compounds were added to the media of cells) (FIG. 23B) or in vitro (compounds were added directly to the purified complex on pre-washed beads) (FIG. 23A). Immunoprecipitation of TRRAP was normalized to the immunoprecipitation of MYC.
This represents an ^~10-fold increase in activity from NSC657456.

MYC:TRRAP interaction, sequence (P01106 16-205): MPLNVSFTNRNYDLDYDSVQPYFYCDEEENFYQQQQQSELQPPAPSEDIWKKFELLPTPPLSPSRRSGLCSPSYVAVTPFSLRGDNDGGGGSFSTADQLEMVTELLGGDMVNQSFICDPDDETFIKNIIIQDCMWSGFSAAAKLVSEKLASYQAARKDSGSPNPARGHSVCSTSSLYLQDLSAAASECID
MYC:TRRAP interaction, sequence (Q9Y4A5 2051-2301): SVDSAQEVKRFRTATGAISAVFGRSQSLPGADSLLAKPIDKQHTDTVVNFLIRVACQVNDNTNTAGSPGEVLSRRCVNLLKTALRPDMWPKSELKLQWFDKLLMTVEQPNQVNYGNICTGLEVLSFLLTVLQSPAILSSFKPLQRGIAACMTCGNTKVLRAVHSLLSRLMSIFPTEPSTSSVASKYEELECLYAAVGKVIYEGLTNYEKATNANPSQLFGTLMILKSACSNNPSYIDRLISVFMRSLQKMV

concentration that inhibits MYC:TRRAP complex formation (MYC:TRRAP interaction; FIG. 25, 26): 3 to 5 µM
% Inhibition 10 uM (MYC:TRRAP interaction; Table 2, compounds with >80% similarity to compound 10 (NSC657456), 10 uM): 39.63%
increase in activity from NSC657456 (MYC:TRRAP interaction; compared with NSC657456): ~ 10 fold
IC50 (MYC:TRRAP interaction; in cells, in-cell luminescence complementation assay, normalized to MYC and TRRAP protein levels, FIG. 26A, read-out: IC50 for the inhibition of MYC:TRRAP): 4.7 µM
IC50 (MYC:TRRAP complexes): 3.7 µM
SMILES: Oc1[nH]c2ccccc2c1/N=N/c1nc(-c2ccccc2)cs1 [Compound 1024, 3-[(4-phenyl-1,3-thiazol-2-yl)diazenyl]-1H-indol-2-ol]
